{"source": "patent US20020137929A1", "about": "“1 - (3-heterocyclylphenyl) isothiourea, -isourea, -guanidine and -amidine herbicidal agents” (Intellectual Property Department, BASF Aktiengesellschaft, priority 1998, published 2002)", "key": {"[1]": {"tested_on": "CYPIR (Rice Flatsedge)", "experiment": "Preemergence weed control under flooded paddy conditions", "format": "in vivo, Cyperus iria", "conditions": "rated 3-4 weeks after treatment", "method_in_brief": "(§1)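 Visual injury scored 0-9 against control three to four weeks post-treatment, greenhouse-grown. Application: acetone/water (50/50) solutions dosed directly into flood water (1.5-3 cm over silt loam, planted top 0.5 cm), roughly 0.0313 to 0.500 kg/ha active ingredient.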"}, "[2]": {"tested_on": "ECHORC (Watergrass (Calif.))", "experiment": "Preemergence weed control under flooded paddy conditions", "format": "in vivo, Echinochloa oryzoides", "conditions": "rated 3-4 weeks after treatment", "method_in_brief": "as §1"}, "[3]": {"tested_on": "SETVI (Foxtail, Green)", "experiment": "Preemergence herbicidal evaluation", "format": "in vivo, Setaria viridis", "conditions": "rated 4-5 weeks after treatment, rating scale 0-9", "method_in_brief": "(§2)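 Visual 0-9 rating vs control (stand, vigor, malformation, size, chlorosis, overall appearance), scored 4-5 wk after spraying. Seeded soil cups were treated preemergence with compound in aqueous acetone, ~0.0156-0.500 kg/ha equivalent.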"}, "[4]": {"tested_on": "SETVI (Foxtail, Green)", "experiment": "Postemergence herbicidal evaluation", "format": "in vivo, Setaria viridis", "conditions": "postemergence", "method_in_brief": "(§3)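 Visual 0–9 rating versus control (stand, vigor, malformation, size, chlorosis, overall appearance), taken four to five weeks post-spray. Two-week-old seedlings received roughly 0.0156–0.500 kg/ha active in acetone/water (50/50) with 0.5% TWEEN 20 via nozzle at 40 psi.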"}, "[5]": {"tested_on": "ZEAMX (Corn, Field)", "experiment": "Postemergence herbicidal evaluation", "format": "in vivo, Zea mays", "conditions": "postemergence", "method_in_brief": "as §3"}, "[6]": {"tested_on": "TRZAWR (Wheat, Winter, cv Riband)", "experiment": "Preemergence herbicidal evaluation", "format": "in vivo, Triticum aestivum", "conditions": "rated 4-5 weeks after treatment, rating scale 0-9", "method_in_brief": "as §2"}, "[7]": {"tested_on": "ZEAMX (Corn, Field)", "experiment": "Preemergence herbicidal evaluation", "format": "in vivo, Zea mays", "conditions": "rated 4-5 weeks after treatment, rating scale 0-9", "method_in_brief": "as §2"}, "[8]": {"tested_on": "CYPSE (Flatsedge)", "experiment": "Preemergence weed control under flooded paddy conditions", "format": "in vivo, Cyperus serotinus", "conditions": "rated 3-4 weeks after treatment", "method_in_brief": "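Flooded-pot preemergence screen with silt loam and seeds in the upper 0.5 cm. Dose about 0.0313 to 0.500 kg/ha, delivered into flood water; visual 0-9 score after 3 to 4 weeks.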"}, "[9]": {"tested_on": "ORYSAT (Rice, Tebonnet)", "experiment": "Postemergence herbicidal evaluation", "format": "in vivo, Oryza sativa, (L.) Tebonnet", "conditions": "postemergence", "method_in_brief": "as §3"}, "[10]": {"tested_on": "ECHCG (Barnyardgrass)", "experiment": "Preemergence herbicidal evaluation", "format": "in vivo, Echinochloa crus-galli", "conditions": "rated 4-5 weeks after treatment, rating scale 0-9", "method_in_brief": "as §2"}}}
{"smiles": "CCOC(=O)CN1C(=O)C(Br)SC1=Nc1cc(-n2c(=O)cc(C(F)(F)F)n(C)c2=O)c(F)cc1Cl", "note": "(stereo not shown) [Compound 153, Ethyl 5-bromo-2-[{2-chloro-5-[3,6-dihydro-3-methyl-2,6-dioxo-4-(trifluoromethyl)-1(2H)-pyrimidinyl]-4-fluorophenyl}imino}-4-oxo-3-thiazolidineacetate]", "values": [{"measurement": "herbicidal effect rating, CYPIR", "setting": "[1]; 0.0625 kg/ha", "value": 0.0}, {"measurement": "herbicidal effect rating, CYPIR", "setting": "[1]; 0.1250 kg/ha", "value": 0.0}, {"measurement": "herbicidal effect rating, CYPIR", "setting": "[1]; 0.2500 kg/ha", "value": 3.0}, {"measurement": "herbicidal effect rating, ECHORC", "setting": "[2]; 0.0625 kg/ha", "value": 0.0}, {"measurement": "herbicidal effect rating, ECHORC", "setting": "[2]; 0.1250 kg/ha", "value": 0.0}, {"measurement": "herbicidal effect rating, ECHORC", "setting": "[2]; 0.2500 kg/ha", "value": 0.0}, {"measurement": "Preemergence herbicidal rating SETVI", "setting": "[3]; rate 0.1250 kg/ha", "value": 1.0}, {"measurement": "Preemergence herbicidal rating SETVI", "setting": "[3]; rate 0.2500 kg/ha", "value": 0.0}, {"measurement": "Herbicidal rating SETVI", "setting": "[4]; rate 0.0156 kg/ha", "value": 0.0}, {"measurement": "Herbicidal rating SETVI", "setting": "[4]; rate 0.0313 kg/ha", "value": 0.0}, {"measurement": "Herbicidal rating SETVI", "setting": "[4]; rate 0.0625 kg/ha", "value": 0.0}, {"measurement": "Herbicidal rating ZEAMX", "setting": "[5]; rate 0.0156 kg/ha", "value": 3.0}, {"measurement": "Herbicidal rating ZEAMX", "setting": "[5]; rate 0.0313 kg/ha", "value": 3.5}, {"measurement": "Herbicidal rating ZEAMX", "setting": "[5]; rate 0.0625 kg/ha", "value": 4.5}, {"measurement": "Preemergence herbicidal rating TRZAWR", "setting": "[6]; rate 0.1250 kg/ha", "value": 0.0}, {"measurement": "Preemergence herbicidal rating TRZAWR", "setting": "[6]; rate 0.2500 kg/ha", "value": 0.0}, {"measurement": "Preemergence herbicidal rating ZEAMX", "setting": "[7]; rate 0.1250 kg/ha", "value": 0.0}, {"measurement": "Preemergence herbicidal rating ZEAMX", "setting": "[7]; rate 0.2500 kg/ha", "value": 0.0}, {"measurement": "herbicidal effect rating, CYPSE", "setting": "[8]; 0.0625 kg/ha", "value": 0.0}, {"measurement": "herbicidal effect rating, CYPSE", "setting": "[8]; 0.1250 kg/ha", "value": 0.0}, {"measurement": "herbicidal effect rating, CYPSE", "setting": "[8]; 0.2500 kg/ha", "value": 0.0}, {"measurement": "Herbicidal rating ORYSAT", "setting": "[9]; rate 0.0156 kg/ha", "value": 1.5}, {"measurement": "Herbicidal rating ORYSAT", "setting": "[9]; rate 0.0313 kg/ha", "value": 1.5}, {"measurement": "Herbicidal rating ORYSAT", "setting": "[9]; rate 0.0625 kg/ha", "value": 1.5}, {"measurement": "Preemergence herbicidal rating ECHCG", "setting": "[10]; rate 0.1250 kg/ha", "value": 0.0}, {"measurement": "Preemergence herbicidal rating ECHCG", "setting": "[10]; rate 0.2500 kg/ha", "value": 0.0}]}
{"smiles": "C=C1SC(=Nc2cc(-n3c(=O)cc(C(F)(F)F)n(C)c3=O)c(F)cc2Cl)N(CC(=O)OCC)C1=O", "note": "[Compound 154]", "values": [{"measurement": "herbicidal effect rating, CYPIR", "setting": "[1]; 0.0313 kg/ha", "value": 2.0}, {"measurement": "herbicidal effect rating, CYPIR", "setting": "[1]; 0.0625 kg/ha", "value": 3.0}, {"measurement": "herbicidal effect rating, CYPIR", "setting": "[1]; 0.1250 kg/ha", "value": 4.0}, {"measurement": "herbicidal effect rating, CYPIR", "setting": "[1]; 0.2500 kg/ha", "value": 6.0}, {"measurement": "herbicidal effect rating, ECHORC", "setting": "[2]; 0.0313 kg/ha", "value": 3.0}, {"measurement": "herbicidal effect rating, ECHORC", "setting": "[2]; 0.0625 kg/ha", "value": 4.0}, {"measurement": "herbicidal effect rating, ECHORC", "setting": "[2]; 0.1250 kg/ha", "value": 7.0}, {"measurement": "herbicidal effect rating, ECHORC", "setting": "[2]; 0.2500 kg/ha", "value": 7.0}, {"measurement": "Preemergence herbicidal rating SETVI", "setting": "[3]; rate 0.0156 kg/ha", "value": 2.0}, {"measurement": "Preemergence herbicidal rating SETVI", "setting": "[3]; rate 0.0313 kg/ha", "value": 7.0}, {"measurement": "Preemergence herbicidal rating SETVI", "setting": "[3]; rate 0.0625 kg/ha", "value": 9.0}, {"measurement": "Preemergence herbicidal rating SETVI", "setting": "[3]; rate 0.1250 kg/ha", "value": 9.0}, {"measurement": "Preemergence herbicidal rating SETVI", "setting": "[3]; rate 0.2500 kg/ha", "value": 9.0}, {"measurement": "Herbicidal rating SETVI", "setting": "[4]; rate 0.0156 kg/ha", "value": 0.0}, {"measurement": "Herbicidal rating SETVI", "setting": "[4]; rate 0.0313 kg/ha", "value": 0.0}, {"measurement": "Herbicidal rating SETVI", "setting": "[4]; rate 0.0625 kg/ha", "value": 5.0}, {"measurement": "Herbicidal rating ZEAMX", "setting": "[5]; rate 0.0156 kg/ha", "value": 4.0}, {"measurement": "Herbicidal rating ZEAMX", "setting": "[5]; rate 0.0313 kg/ha", "value": 4.0}, {"measurement": "Herbicidal rating ZEAMX", "setting": "[5]; rate 0.0625 kg/ha", "value": 5.0}, {"measurement": "Preemergence herbicidal rating TRZAWR", "setting": "[6]; rate 0.0156 kg/ha", "value": 0.0}, {"measurement": "Preemergence herbicidal rating TRZAWR", "setting": "[6]; rate 0.0313 kg/ha", "value": 2.0}, {"measurement": "Preemergence herbicidal rating TRZAWR", "setting": "[6]; rate 0.0625 kg/ha", "value": 8.0}, {"measurement": "Preemergence herbicidal rating TRZAWR", "setting": "[6]; rate 0.1250 kg/ha", "value": 8.0}, {"measurement": "Preemergence herbicidal rating TRZAWR", "setting": "[6]; rate 0.2500 kg/ha", "value": 9.0}, {"measurement": "Preemergence herbicidal rating ZEAMX", "setting": "[7]; rate 0.0156 kg/ha", "value": 5.0}, {"measurement": "Preemergence herbicidal rating ZEAMX", "setting": "[7]; rate 0.0313 kg/ha", "value": 7.0}, {"measurement": "Preemergence herbicidal rating ZEAMX", "setting": "[7]; rate 0.0625 kg/ha", "value": 8.0}, {"measurement": "Preemergence herbicidal rating ZEAMX", "setting": "[7]; rate 0.1250 kg/ha", "value": 9.0}, {"measurement": "Preemergence herbicidal rating ZEAMX", "setting": "[7]; rate 0.2500 kg/ha", "value": 9.0}, {"measurement": "herbicidal effect rating, CYPSE", "setting": "[8]; 0.0313 kg/ha", "value": 4.0}, {"measurement": "herbicidal effect rating, CYPSE", "setting": "[8]; 0.0625 kg/ha", "value": 6.0}, {"measurement": "herbicidal effect rating, CYPSE", "setting": "[8]; 0.1250 kg/ha", "value": 9.0}, {"measurement": "herbicidal effect rating, CYPSE", "setting": "[8]; 0.2500 kg/ha", "value": 9.0}, {"measurement": "Herbicidal rating ORYSAT", "setting": "[9]; rate 0.0156 kg/ha", "value": 0.5}, {"measurement": "Herbicidal rating ORYSAT", "setting": "[9]; rate 0.0313 kg/ha", "value": 1.5}, {"measurement": "Herbicidal rating ORYSAT", "setting": "[9]; rate 0.0625 kg/ha", "value": 2.0}, {"measurement": "Preemergence herbicidal rating ECHCG", "setting": "[10]; rate 0.0156 kg/ha", "value": 0.0}, {"measurement": "Preemergence herbicidal rating ECHCG", "setting": "[10]; rate 0.0313 kg/ha", "value": 4.0}, {"measurement": "Preemergence herbicidal rating ECHCG", "setting": "[10]; rate 0.0625 kg/ha", "value": 9.0}, {"measurement": "Preemergence herbicidal rating ECHCG", "setting": "[10]; rate 0.1250 kg/ha", "value": 9.0}, {"measurement": "Preemergence herbicidal rating ECHCG", "setting": "[10]; rate 0.2500 kg/ha", "value": 9.0}]}
